Data published in the supplement of paper PMC10883282.
± gives the standard deviation of the averaged measurements.

Columns and labels:
Experiment in all cases: relative viability vs DMSO control (72 h) (fraction); higher = more viable cells
[1] = test system: HT1080
Summary of the method: (§1)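 Percent growth from ATPLite readings, averaged over up to triplicate wells, was used as relative viability. Sarcoma cell lines were seeded into 384-well plates for 80–90% confluence, dosed after 24 h, and kept 72 h at 37 °C, 5% CO2. Data were rescaled to a range where 1 is full and 0 is none.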

[2] = test system: RD-ES
Summary of the method: as §1

[3] = test system: SYO-1
Summary of the method: as §1

[4] = test system: SW684
Summary of the method: as §1

[5] = test system: KHOS-NP
Summary of the method: as §1

Cc1cccc(-c2nn3c(c2-c2ccnc4ccc(C(N)=O)cc24)CCC3)n1 [Galunisertib]
relative viability
Settings	[1]	[2]	[3]	[4]	[5]
0.00017 µM	1.06 ± 0.056	0.932 ± 0.034	0.972 ± 0.068	1.08 ± 0.02	1.088 ± 0.0085
0.00051 µM	1.04 ± 0.0077	0.975 ± 0.013	0.942 ± 0.055	1.09 ± 0.072	1.09 ± 0.015
0.00152 µM	0.959 ± 0.051	0.979 ± 0.026	0.913 ± 0.04	1.08 ± 0.061	1.066 ± 0.0082
0.00457 µM	1.04 ± 0.039	0.965 ± 0.014	0.898 ± 0.014	1.13 ± 0.059	1.06 ± 0.042
0.01372 µM	1.04 ± 0.043	0.979 ± 0.02	0.867 ± 0.0097	1.09 ± 0.053	1.06 ± 0.028
0.04115 µM	1.01 ± 0.024	0.9533 ± 0.0039	0.824 ± 0.012	1.11 ± 0.055	1.07 ± 0.034
0.1235 µM	1.01 ± 0.031	0.92 ± 0.046	0.783 ± 0.028	1.09 ± 0.015	1.03 ± 0.019
0.3704 µM	1.04 ± 0.025	0.915 ± 0.027	0.752 ± 0.06	1.08 ± 0.035	1.04 ± 0.021
1.111 µM	1.04 ± 0.018	0.913 ± 0.019	0.738 ± 0.064	1.05 ± 0.032	0.999 ± 0.025
3.333 µM	1.03 ± 0.024	0.886 ± 0.025	0.685 ± 0.053	1.08 ± 0.021	0.978 ± 0.017
10 µM	1.02 ± 0.035	0.894 ± 0.028	0.671 ± 0.042	1.09 ± 0.055	0.976 ± 0.029

CN1CC[C@@H](NC(=O)Nc2ccc(C#N)cc2)C[C@@H]1c1nc2ccccc2[nH]1 [Glasdegib]
relative viability
Settings	[1]	[2]	[3]	[4]	[5]
0.00017 µM	1.07 ± 0.034	0.9823 ± 0.0076	1.032 ± 0.0056	1.165 ± 0.0075	1.09 ± 0.035
0.00051 µM	1.091 ± 0.003	0.963 ± 0.028	1.01 ± 0.031	1.14 ± 0.024	1.1 ± 0.033
0.00152 µM	1.112 ± 0.0024	0.9569 ± 0.0078	1.01 ± 0.025	1.19 ± 0.047	1.1 ± 0.037
0.00457 µM	1.09 ± 0.038	0.968 ± 0.028	0.99 ± 0.031	1.15 ± 0.038	1.11 ± 0.044
0.01372 µM	1.09 ± 0.026	0.96 ± 0.025	0.973 ± 0.043	1.16 ± 0.025	0.779 ± 0.59
0.04115 µM	1.112 ± 0.0081	0.923 ± 0.013	0.976 ± 0.043	1.177 ± 0.0099	1.1 ± 0.025
0.1235 µM	1.1 ± 0.018	0.924 ± 0.017	0.991 ± 0.043	1.12 ± 0.079	1.108 ± 0.011
0.3704 µM	1.087 ± 0.0067	0.926 ± 0.025	1 ± 0.035	1.2 ± 0.02	1.12 ± 0.013
1.111 µM	1.07 ± 0.041	0.924 ± 0.046	0.999 ± 0.05	1.12 ± 0.048	1.11 ± 0.014
3.333 µM	1.054 ± 0.0082	0.934 ± 0.059	0.975 ± 0.043	1.12 ± 0.064	1.085 ± 0.01
10 µM	1.01 ± 0.053	0.891 ± 0.059	0.981 ± 0.072	1.12 ± 0.053	1.02 ± 0.028

CC(C)NC[C@@H](C(=O)N1CCN(c2ncnc3c2[C@H](C)C[C@H]3O)CC1)c1ccc(Cl)cc1 [Ipatasertib]
relative viability
Settings	[1]	[2]	[3]	[4]	[5]
0.00017 µM	1.1 ± 0.035	0.9447 ± 0.0037	0.95 ± 0.019	1.07 ± 0.064	1.1 ± 0.021
0.00051 µM	1.08 ± 0.031	0.932 ± 0.036	0.94 ± 0.012	1.11 ± 0.038	1.11 ± 0.042
0.00152 µM	1.1 ± 0.023	0.954 ± 0.035	0.862 ± 0.052	1.11 ± 0.033	1.11 ± 0.022
0.00457 µM	1.05 ± 0.018	0.9221 ± 0.0058	0.821 ± 0.058	1.09 ± 0.04	1.09 ± 0.03
0.01372 µM	1.07 ± 0.03	0.925 ± 0.033	0.807 ± 0.049	1.09 ± 0.032	1.06 ± 0.017
0.04115 µM	1.04 ± 0.03	0.869 ± 0.03	0.776 ± 0.043	1.08 ± 0.031	1.06 ± 0.028
0.1235 µM	1.1 ± 0.068	0.844 ± 0.017	0.719 ± 0.011	0.994 ± 0.026	1.067 ± 0.0021
0.3704 µM	1.07 ± 0.026	0.7432 ± 0.0065	0.656 ± 0.014	0.855 ± 0.035	1.04 ± 0.013
1.111 µM	1.055 ± 0.0067	0.601 ± 0.014	0.636 ± 0.029	0.664 ± 0.052	1.04 ± 0.018
3.333 µM	0.997 ± 0.053	0.52 ± 0.013	0.549 ± 0.016	0.5598 ± 0.0049	0.994 ± 0.042
10 µM	0.994 ± 0.062	0.4354 ± 0.0005	0.504 ± 0.0094	0.49 ± 0.029	0.957 ± 0.05

COC(=O)[C@@]1(O)C[C@H]2O[C@]1(C)n1c3ccccc3c3c4c(c5c6ccccc6n2c5c31)C(=O)NC4 [K-252a]
relative viability
Settings	[1]	[2]	[3]	[4]	[5]
0.00017 µM	1.09 ± 0.02	0.991 ± 0.041	1.03 ± 0.036	1.12 ± 0.077	1.09 ± 0.016
0.00051 µM	1.09 ± 0.046	1.02 ± 0.015	0.983 ± 0.044	1.176 ± 0.011	1.101 ± 0.011
0.00152 µM	1.09 ± 0.03	1.01 ± 0.017	0.982 ± 0.051	1.14 ± 0.043	1.1 ± 0.023
0.00457 µM	1.09 ± 0.038	1.02 ± 0.013	0.9645 ± 0.009	1.18 ± 0.045	1.08 ± 0.018
0.01372 µM	1.16 ± 0.038	0.979 ± 0.029	0.928 ± 0.027	1.2 ± 0.031	1.1 ± 0.013
0.04115 µM	1.13 ± 0.038	0.797 ± 0.012	0.862 ± 0.028	1.14 ± 0.035	1.071 ± 0.0093
0.1235 µM	1.05 ± 0.029	0.578 ± 0.024	0.66 ± 0.044	1.05 ± 0.028	0.961 ± 0.013
0.3704 µM	1.13 ± 0.042	0.488 ± 0.023	0.302 ± 0.017	0.906 ± 0.013	0.927 ± 0.051
1.111 µM	0.683 ± 0.014	0.175 ± 0.019	0.137 ± 0.033	0.512 ± 0.026	0.286 ± 0.0044
3.333 µM	0.105 ± 0.038	0.0819 ± 0.0047	0.128 ± 0.026	0.0655 ± 0.0047	0.154 ± 0.021
10 µM	0.0141 ± 0.0015	0.0303 ± 0.0099	0.13 ± 0.018	0.0141 ± 0.008	0.0717 ± 0.012
